# Measured values taken from US6943183B2 (Pfizer Inc, priority 2000, dated 2005).
# pIC50: −log10 of the molar value.
# Biological target: T1, SF9 affinity purified rat FPT (Rattus norvegicus, UniProt Q02293+Q04631)
# T1 construct: made in house; host or cells: Sf9 insect cells
# Assay: PFT (FPT) inhibitory activity assay, radiolabeled farnesyl pyrophosphate and biotinyl peptide, streptavidin beads
# Assay type: biochemical
# Settings: HEPES buffer pH 7.4, 30° C., 30 minutes; read-out: FTase IC50
# How it was run: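 Rat FPT expressed in SF9 cells was incubated 30 minutes at 30° C. with compound (in 10% DMSO), radiolabeled farnesyl pyrophosphate and biotinylated peptide. Buffer: HEPES pH 7.4, ZnCl2 20 μM, MgCl2 and DTT 5 mM each, 0.1% PEG 8000, 5 mM potassium phosphate (also run without phosphate). Product captured on streptavidin beads in magnesium acetate/H3PO4 stop buffer.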
row,SMILES,pIC50
1,"C#CCNC(=O)c1cccc(S(=O)(=O)Cc2c(O[C@H](Cn3ccnc3)c3ccccc3)ccc3c2CCCC3=O)c1 [Compound 215, 3-{[(2-{[(1S)-2-(1H-Imidazol-1-yl)-1-phenylethyl]oxy}-5-oxo-5,6,7,8-tetrahydro-1-naphthalenyl)methyl]sulfonyl}-N-(2-propynyl)benzamide]",9.70
2,"C#CCNC(=O)c1ccccc1S(=O)(=O)Cc1c(O[C@H](Cn2ccnc2)c2ccccc2)ccc2c1CCCC2=O [Compound 216, 2-{[(2-{[(1S)-2-(1H-Imidazol-1-yl)-1-phenylethyl]oxy}-5-oxo-5,6,7,8-tetrahydro-1-naphthalenyl)methyl]sulfonyl}-N-(2-propynyl)benzamide]",9.40
3,"O=C(NC1CCCC1)c1ccc(S(=O)(=O)Cc2c(O[C@H](Cn3ccnc3)c3ccccc3)ccc3c2CCCC3=O)cc1 [Compound 217, N-Cyclopentyl-4-{[(2-{[(1S)-2-(1H-imidazol-1-yl)-1-phenylethyl]oxy}-5-oxo-5,6,7,8-tetrahydro-1-naphthalenyl)methyl]sulfonyl}benzamide]",9.70
4,"O=C(NC1CCCC1)c1cccc(S(=O)(=O)Cc2c(O[C@H](Cn3ccnc3)c3ccccc3)ccc3c2CCCC3=O)c1 [Compound 218, N-Cyclopentyl-3-{[(2-{[(1S)-2-(1H-imidazol-1-yl)-1-phenylethyl]oxy}-5-oxo-5,6,7,8-tetrahydro-1-naphthalenyl)methyl]sulfonyl}benzamide]",9.70
5,"O=C(NC1CCCC1)c1ccccc1S(=O)(=O)Cc1c(O[C@H](Cn2ccnc2)c2ccccc2)ccc2c1CCCC2=O [Compound 219, N-Cyclopentyl-2-{[(2-{[(1S)-2-(1H-imidazol-1-yl)-1-phenylethyl]oxy}-5-oxo-5,6,7,8-tetrahydro-1-naphthalenyl)methyl]sulfonyl}benzamide]",9.33

# Next, values leading:
row,pIC50,SMILES
1,9.70,"C=CCNC(=O)c1ccc(SCc2c(O[C@H](Cn3ccnc3)c3ccccc3)ccc3c2CCCC3=O)cc1 [Compound 209, N-Allyl-4-{[(2-{[(1S)-2-(1H-imidazol-1-yl)-1-phenylethyl]oxy}-5-oxo-5,6,7,8-tetrahydro-1-naphthalenyl)methyl]sulfanyl}benzamide]"
2,9.70,"C=CCNC(=O)c1cccc(SCc2c(O[C@H](Cn3ccnc3)c3ccccc3)ccc3c2CCCC3=O)c1 [Compound 210, N-Allyl-3-{[(2-{[(1S)-2-(1H-imidazol-1-yl)-1-phenylethyl]oxy}-5-oxo-5,6,7,8-tetrahydro-1-naphthalenyl)methyl]sulfanyl}benzamide]"
3,9.70,"C#CCNC(=O)c1ccccc1SCc1c(O[C@H](Cn2ccnc2)c2ccccc2)ccc2c1CCCC2=O [Compound 211, 2-{[(2-{[(1S)-2-(1H-Imidazol-1-yl)-1-phenylethyl]oxy}-5-oxo-5,6,7,8-tetrahydro-1-naphthalenyl)methyl]sulfanyl}-N-(2-propynyl)benzamide]"
4,9.70,"C#CCNC(=O)c1ccc(SCc2c(O[C@H](Cn3ccnc3)c3ccccc3)ccc3c2CCCC3=O)cc1 [Compound 212, 4-{[(2-{[(1S)-2-(1H-Imidazol-1-yl)-1-phenylethyl]oxy}-5-oxo-5,6,7,8-tetrahydro-1-naphthalenyl)methyl]sulfanyl}-N-(2-propynyl)benzamide]"
5,9.70,"C#CCNC(=O)c1cccc(SCc2c(O[C@H](Cn3ccnc3)c3ccccc3)ccc3c2CCCC3=O)c1 [Compound 213, 3-{[(2-{[(1S)-2-(1H-Imidazol-1-yl)-1-phenylethyl]oxy}-5-oxo-5,6,7,8-tetrahydro-1-naphthalenyl)methyl]sulfanyl}-N-(2-propynyl)benzamide]"
6,9.43,"C#CCNC(=O)c1ccc(S(=O)(=O)Cc2c(O[C@H](Cn3ccnc3)c3ccccc3)ccc3c2CCCC3=O)cc1 [Compound 214, 4-{[(2-{[(1S)-2-(1H-Imidazol-1-yl)-1-phenylethyl]oxy}-5-oxo-5,6,7,8-tetrahydro-1-naphthalenyl)methyl]sulfonyl}-N-(2-propynyl)benzamide]"
